Laboratory results reported in the supplement of paper PMC4932681.

Tests used:
ZR-75-1 Tam2 [1] = test: relative IC50 (midpoint of fitted logistic curve, plateau may be below 50% inhibition; CellTiter-Glo viability); higher = less potent; conditions: 4-OH-tamoxifen in medium 1 µM; 72 h
How it was run: (§1)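 Breast cancer cell lines and their resistant derivatives were seeded into 384-well plates containing library drugs at five concentrations across a 10 000-fold range, with resistant lines kept in medium with 1 μM of the selecting drug. After 72 h at 37 °C, CellTiter-Glo viability was read on a PHERAstar and normalised to vehicle-only and positive controls. Logistic dose–response fits in the Breeze pipeline gave drug sensitivity score, relative IC50 (curve midpoint) and top-dose inhibition.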

T-47D Tam2 [2] = test: as above; conditions: 4-OH-tamoxifen in medium 1 µM; 72 h
How it was run: as §1

BT-474 [3] = test: as above; conditions: 72 h
How it was run: as §1

ZR-75-1 [4] = test: as above; conditions: 72 h
How it was run: as §1

ZR-75-1 Tam1 [5] = test: as above; conditions: 4-OH-tamoxifen in medium 1 µM; 72 h
How it was run: as §1

MCF-7 [6] = test: as above; conditions: 72 h
How it was run: as §1

BT-474 Tam1 [7] = test: as above; conditions: 4-OH-tamoxifen in medium 1 µM; 72 h
How it was run: as §1

BT-474 Tam2 [8] = test: as above; conditions: 4-OH-tamoxifen in medium 1 µM; 72 h
How it was run: as §1

T-47D Tam1 [9] = test: as above; conditions: 4-OH-tamoxifen in medium 1 µM; 72 h
How it was run: as §1

MCF-7 Tam1 [10] = test: as above; conditions: 4-OH-tamoxifen in medium 1 µM; 72 h
How it was run: as §1

T-47D [11] = test: as above; conditions: 72 h
How it was run: as §1

ZR-75-1 Tam2 [12] = test: drug sensitivity score (DSS) (DSS (dimensionless)); higher = more sensitive; extreme values may be limits of the assay; conditions: 4-OH-tamoxifen in medium 1 µM; 72 h
How it was run: as §1

T-47D Tam2 [13] = test: as above; conditions: 4-OH-tamoxifen in medium 1 µM; 72 h
How it was run: as §1

BT-474 [14] = test: as above; conditions: 72 h
How it was run: as §1

ZR-75-1 [15] = test: as above; conditions: 72 h
How it was run: as §1

ZR-75-1 Tam1 [16] = test: as above; conditions: 4-OH-tamoxifen in medium 1 µM; 72 h
How it was run: as §1

MCF-7 [17] = test: as above; conditions: 72 h
How it was run: as §1

BT-474 Tam1 [18] = test: as above; conditions: 4-OH-tamoxifen in medium 1 µM; 72 h
How it was run: as §1

BT-474 Tam2 [19] = test: as above; conditions: 4-OH-tamoxifen in medium 1 µM; 72 h
How it was run: as §1

T-47D Tam1 [20] = test: as above; conditions: 4-OH-tamoxifen in medium 1 µM; 72 h
How it was run: as §1

MCF-7 Tam1 [21] = test: as above; conditions: 4-OH-tamoxifen in medium 1 µM; 72 h
How it was run: as §1

T-47D [22] = test: as above; conditions: 72 h
How it was run: as §1

## Nc1ncn([C@H]2C[C@H](O)[C@@H](CO)O2)c(=O)n1 [Decitabine (Dacogen)]
ZR-75-1 Tam2 [1]
  relative IC50: > 10 µM
T-47D Tam2 [2]
  relative IC50: > 10 µM
BT-474 [3]; 4-OH-tamoxifen in medium 0 µM
  relative IC50: > 10 µM
BT-474 [3]; 4-OH-tamoxifen in medium 1 µM
  relative IC50: > 10 µM
ZR-75-1 [4]; 4-OH-tamoxifen in medium 0 µM
  relative IC50: > 10 µM
ZR-75-1 [4]; 4-OH-tamoxifen in medium 1 µM
  relative IC50: > 10 µM
ZR-75-1 Tam1 [5]
  relative IC50: > 10 µM
MCF-7 [6]; 4-OH-tamoxifen in medium 1 µM
  relative IC50: > 10 µM
BT-474 Tam1 [7]
  relative IC50: > 10 µM
BT-474 Tam2 [8]
  relative IC50: > 10 µM
T-47D Tam1 [9]
  relative IC50: > 10 µM
MCF-7 Tam1 [10]
  relative IC50: > 10 µM
T-47D [11]; 4-OH-tamoxifen in medium 0 µM
  relative IC50: > 10 µM
T-47D [11]; 4-OH-tamoxifen in medium 1 µM
  relative IC50: > 10 µM
ZR-75-1 Tam2 [12]
  drug sensitivity score: 0
T-47D Tam2 [13]
  drug sensitivity score: 0
BT-474 [14]; 4-OH-tamoxifen in medium 0 µM
  drug sensitivity score: 0
BT-474 [14]; 4-OH-tamoxifen in medium 1 µM
  drug sensitivity score: 0
ZR-75-1 [15]; 4-OH-tamoxifen in medium 0 µM
  drug sensitivity score: 0
ZR-75-1 [15]; 4-OH-tamoxifen in medium 1 µM
  drug sensitivity score: 0
ZR-75-1 Tam1 [16]
  drug sensitivity score: 0
MCF-7 [17]; 4-OH-tamoxifen in medium 0 µM
  drug sensitivity score: 1.25
MCF-7 [17]; 4-OH-tamoxifen in medium 1 µM
  drug sensitivity score: 0
BT-474 Tam1 [18]
  drug sensitivity score: 0
BT-474 Tam2 [19]
  drug sensitivity score: 0
T-47D Tam1 [20]
  drug sensitivity score: 0
MCF-7 Tam1 [21]
  drug sensitivity score: 0
T-47D [22]; 4-OH-tamoxifen in medium 0 µM
  drug sensitivity score: 0
T-47D [22]; 4-OH-tamoxifen in medium 1 µM
  drug sensitivity score: 0

## C[C@H]1C[C@@H]2[C@H]([C@@H](O)C[C@@]3(C)[C@H]2CC[C@]3(O)C(=O)CO)[C@@]2(C)C=CC(=O)C=C12 [Methylprednisolone]
ZR-75-1 Tam2 [1]
  relative IC50: > 10 µM
T-47D Tam2 [2]
  relative IC50: > 10 µM
BT-474 [3]; 4-OH-tamoxifen in medium 0 µM
  relative IC50: > 10 µM
BT-474 [3]; 4-OH-tamoxifen in medium 1 µM
  relative IC50: > 10 µM
ZR-75-1 [4]; 4-OH-tamoxifen in medium 0 µM
  relative IC50: > 10 µM
ZR-75-1 [4]; 4-OH-tamoxifen in medium 1 µM
  relative IC50: > 10 µM
ZR-75-1 Tam1 [5]
  relative IC50: > 10 µM
MCF-7 [6]; 4-OH-tamoxifen in medium 0 µM
  relative IC50: > 10 µM
BT-474 Tam1 [7]
  relative IC50: > 10 µM
BT-474 Tam2 [8]
  relative IC50: > 10 µM
T-47D Tam1 [9]
  relative IC50: > 10 µM
MCF-7 Tam1 [10]
  relative IC50: > 10 µM
T-47D [11]; 4-OH-tamoxifen in medium 0 µM
  relative IC50: > 10 µM
T-47D [11]; 4-OH-tamoxifen in medium 1 µM
  relative IC50: > 10 µM
ZR-75-1 Tam2 [12]
  drug sensitivity score: 0
T-47D Tam2 [13]
  drug sensitivity score: 0
BT-474 [14]; 4-OH-tamoxifen in medium 0 µM
  drug sensitivity score: 0
BT-474 [14]; 4-OH-tamoxifen in medium 1 µM
  drug sensitivity score: 0
ZR-75-1 [15]; 4-OH-tamoxifen in medium 0 µM
  drug sensitivity score: 0
ZR-75-1 [15]; 4-OH-tamoxifen in medium 1 µM
  drug sensitivity score: 0
ZR-75-1 Tam1 [16]
  drug sensitivity score: 0
MCF-7 [17]; 4-OH-tamoxifen in medium 0 µM
  drug sensitivity score: 0
MCF-7 [17]; 4-OH-tamoxifen in medium 1 µM
  drug sensitivity score: 0.455
BT-474 Tam1 [18]
  drug sensitivity score: 0
BT-474 Tam2 [19]
  drug sensitivity score: 0
T-47D Tam1 [20]
  drug sensitivity score: 0
MCF-7 Tam1 [21]
  drug sensitivity score: 0
T-47D [22]; 4-OH-tamoxifen in medium 0 µM
  drug sensitivity score: 0
T-47D [22]; 4-OH-tamoxifen in medium 1 µM
  drug sensitivity score: 0

## COc1c2occc2cc2ccc(=O)oc12 [Methoxsalen]
ZR-75-1 Tam2 [1]
  relative IC50: > 10 µM
T-47D Tam2 [2]
  relative IC50: > 10 µM
BT-474 [3]; 4-OH-tamoxifen in medium 0 µM
  relative IC50: > 10 µM
BT-474 [3]; 4-OH-tamoxifen in medium 1 µM
  relative IC50: > 10 µM
ZR-75-1 [4]; 4-OH-tamoxifen in medium 0 µM
  relative IC50: > 10 µM
ZR-75-1 [4]; 4-OH-tamoxifen in medium 1 µM
  relative IC50: > 10 µM
ZR-75-1 Tam1 [5]
  relative IC50: > 10 µM
MCF-7 [6]; 4-OH-tamoxifen in medium 0 µM
  relative IC50: > 10 µM
MCF-7 [6]; 4-OH-tamoxifen in medium 1 µM
  relative IC50: > 10 µM
BT-474 Tam1 [7]
  relative IC50: > 10 µM
BT-474 Tam2 [8]
  relative IC50: > 10 µM
T-47D Tam1 [9]
  relative IC50: > 10 µM
MCF-7 Tam1 [10]
  relative IC50: > 10 µM
T-47D [11]; 4-OH-tamoxifen in medium 0 µM
  relative IC50: > 10 µM
T-47D [11]; 4-OH-tamoxifen in medium 1 µM
  relative IC50: > 10 µM
ZR-75-1 Tam2 [12]
  drug sensitivity score: 0
T-47D Tam2 [13]
  drug sensitivity score: 0
BT-474 [14]; 4-OH-tamoxifen in medium 0 µM
  drug sensitivity score: 0
BT-474 [14]; 4-OH-tamoxifen in medium 1 µM
  drug sensitivity score: 0
ZR-75-1 [15]; 4-OH-tamoxifen in medium 0 µM
  drug sensitivity score: 0
ZR-75-1 [15]; 4-OH-tamoxifen in medium 1 µM
  drug sensitivity score: 0
ZR-75-1 Tam1 [16]
  drug sensitivity score: 0
MCF-7 [17]; 4-OH-tamoxifen in medium 0 µM
  drug sensitivity score: 0
MCF-7 [17]; 4-OH-tamoxifen in medium 1 µM
  drug sensitivity score: 0
BT-474 Tam1 [18]
  drug sensitivity score: 0
BT-474 Tam2 [19]
  drug sensitivity score: 0
T-47D Tam1 [20]
  drug sensitivity score: 0
MCF-7 Tam1 [21]
  drug sensitivity score: 0
T-47D [22]; 4-OH-tamoxifen in medium 0 µM
  drug sensitivity score: 0
T-47D [22]; 4-OH-tamoxifen in medium 1 µM
  drug sensitivity score: 0

## Clc1ccc(C(c2ccccc2Cl)C(Cl)Cl)cc1 (stereo not drawn) [Mitotane]
ZR-75-1 Tam2 [1]
  relative IC50: > 10 µM
T-47D Tam2 [2]
  relative IC50: > 10 µM
BT-474 [3]; 4-OH-tamoxifen in medium 0 µM
  relative IC50: > 10 µM
BT-474 [3]; 4-OH-tamoxifen in medium 1 µM
  relative IC50: > 10 µM
ZR-75-1 [4]; 4-OH-tamoxifen in medium 0 µM
  relative IC50: > 10 µM
ZR-75-1 [4]; 4-OH-tamoxifen in medium 1 µM
  relative IC50: > 10 µM
ZR-75-1 Tam1 [5]
  relative IC50: > 10 µM
MCF-7 [6]; 4-OH-tamoxifen in medium 0 µM
  relative IC50: > 10 µM
MCF-7 [6]; 4-OH-tamoxifen in medium 1 µM
  relative IC50: > 10 µM
BT-474 Tam1 [7]
  relative IC50: > 10 µM
BT-474 Tam2 [8]
  relative IC50: > 10 µM
T-47D Tam1 [9]
  relative IC50: > 10 µM
MCF-7 Tam1 [10]
  relative IC50: > 10 µM
T-47D [11]; 4-OH-tamoxifen in medium 0 µM
  relative IC50: > 10 µM
T-47D [11]; 4-OH-tamoxifen in medium 1 µM
  relative IC50: > 10 µM
ZR-75-1 Tam2 [12]
  drug sensitivity score: 0
T-47D Tam2 [13]
  drug sensitivity score: 0
BT-474 [14]; 4-OH-tamoxifen in medium 0 µM
  drug sensitivity score: 0
BT-474 [14]; 4-OH-tamoxifen in medium 1 µM
  drug sensitivity score: 0
ZR-75-1 [15]; 4-OH-tamoxifen in medium 0 µM
  drug sensitivity score: 0
ZR-75-1 [15]; 4-OH-tamoxifen in medium 1 µM
  drug sensitivity score: 0
ZR-75-1 Tam1 [16]
  drug sensitivity score: 0
MCF-7 [17]; 4-OH-tamoxifen in medium 0 µM
  drug sensitivity score: 0
MCF-7 [17]; 4-OH-tamoxifen in medium 1 µM
  drug sensitivity score: 0
BT-474 Tam1 [18]
  drug sensitivity score: 0
BT-474 Tam2 [19]
  drug sensitivity score: 0
T-47D Tam1 [20]
  drug sensitivity score: 0
MCF-7 Tam1 [21]
  drug sensitivity score: 0
T-47D [22]; 4-OH-tamoxifen in medium 0 µM
  drug sensitivity score: 0
T-47D [22]; 4-OH-tamoxifen in medium 1 µM
  drug sensitivity score: 0
